From patent US9956199B2, “Chromane-like cyclic prenylflavonoids for the medical intervention in neurological disorders” (priority 2011, dated 2018)
“Also recorded” adds a separate entry of the source.

Key:
[1] = system: mouse embryonic day 16 forebrain (MEF) cells; assay: normalized renilla luciferase activity (cell survival / relative cytotoxicity); type: cell-based; settings: three days, FIG. 1D
Protocol: Luciferase assays were performed using a noncommercial dual luciferase enzyme assay system (Dyer et al., 2000, Anal Biochem). In this system, a co-transfection with pDCX-Luci and a control vector driving Renilla-luciferase under the CMV promoter was performed. The two different luciferases have different specific substrates and, therefore, the DCX regulatory region driven firefly luciferase activity can be distinguished from CMV driven Renilla-luciferase. For analysis, the firefly luciferase activity was normalized against the CMV driven Renilla-luciferase. […]
Elmer, Calif., USA) according to the manufacturer's instructions. Then, 100 μl of freshly prepared Renilla assay solution consisting of 1.1 M NaCl (VWR, Vienna, Austria), 2.2 mM Na2EDTA, 0.22 M KH2PO4 pH 5.1 (Merck, Darmstadt, Germany), 0.44 mg/mL BSA (Biomol, Hamburg, Germany), 1.3 mM NaN3 (Sigma-Aldrich, Taufkirchen, Germany), […] coelenterazine (p.j.k., Kleinblittersdorf, Germany) per well were added and measurements were performed using the Victor™ X Multilable Plate Reader as described above. Data were normalized the following way: i) firefly (FF) luciferase activity is related to the renilla (R) luciferase activity; and ii) the FF/R values of the individual samples are related to the FF/R value obtained by stimulation with the control medium and expressed as x-fold change compared to control. […]

[2] = system: PC12 cells; assay: PC12 cobalt-chloride stress test, Caspase 3/7 activation; type: cell-based, rat; settings: CoCl2 300 μM, 24 hours; compounds 10 μM, NGF 50 ng/ml; FIG. 7A
Protocol: For the neuroprotection assay PC12 cells were stressed with cobalt chloride 300 μM for 24 hours and the activity of Caspase 3/7 and LDH release were measured. NGF 50 ng/ml was used as a positive control for Caspase 3/7 activity and NGF 100 ng/ml was used as a positive control for LDH release.
For the PC12-CoCl2-Assay PC12 cells were used (ATCC: CRL-1721 ™). These cells were growing in RPMI supplemented with 10% Horse Serum (heat inactivated) (Sigma Aldrich, Taufkirchen, Germany), 5% Fetal Bovine Serum (Lonza, Wuppertal, Germany), 2.5% Penicillin/Streptomycin and Glutamine (PAA, Pasching, Austria) as adherent cultures when the plates are coated with Poly-L-ornithine ([…] in water) for at least one hour at 37° C. For passaging PC12-cells were resuspended with Accutase (PAA, Pasching, Austria) for 10 minutes at 37° C. once a week.
For all experiments cells were plated (quadruplicates) on Poly-L-ornithine-coated 96-well plates at a density of 10^4 cells per well. For Caspase 3/7-measurement cells were seeded in a white 96-well-plate to detect luminescence. As positive-control for neuroprotection Nerve Growth Factor (NGF) (50 ng/ml and 100 ng/ml) was used. To induce hypoxia CoCl2 (300 μM) was added to the cells after 20-24 hours. The control-treatment was compound 1a (ENDF1), compound 1b (ENDF3), compound 3a (ENDF2), ENDF4 or Osajin in the concentrations 1 μM and 10 μM in proliferation-media without CoCl2.
For Caspase 3/7-activation Caspase 3/7 substrate was added to the cells in an equal amount 22 hours after stimulation. Plates are incubated for 2 hours at room temperature in the dark, luminescence was measured 24 hours after stimulation and the blank-values are subtracted.

Compound: COc1cc2c(c(O)c1C(=O)/C=C/c1ccc(O)cc1)C=CC(C)(C)O2 [Compound 1a, (E)-1-(5-hydroxy-7-methoxy-2,2-dimethyl-2H-chromen-6-yl)-3-(4-hydroxyphenyl)prop-2-en-1-one]
- normalized renilla activity (approximate measure of cell survival / relative cytotoxicity) [1]: significantly higher than that exerted by the reference compounds xanthohumol and osajin
- protection from CoCl2 induced Caspase 3/7 activity [2]: partially protected; also recorded: significant neuroprotective effect similar to NGF

Compound: COc1cc2c(c(O)c1C(=O)/C=C/c1ccc(O)cc1)CCC(C)(C)O2 [Compound 1b, (E)-1-(5-hydroxy-7-methoxy-2,2-dimethylchroman-6-yl)-3-(4-hydroxyphenyl)prop-2-en-1-one]
- normalized renilla activity (approximate measure of cell survival / relative cytotoxicity) [1]: significantly higher than that exerted by the reference compounds xanthohumol and osajin
- protection from CoCl2 induced Caspase 3/7 activity [2]: partially protected; also recorded: significant neuroprotective effect similar to NGF
